# According to publication PMC9021288 (Nature Communications, 2022):
# Where “and” joins values, the source holds several entries; their conditions need not be identical. Equal values may be shown once. Entries after “also recorded” stand apart in the source; their conditions may differ.
# How the values were obtained:
# [1] = Stability under stress storage conditions (XRPD); assay type: physicochemical; conditions: 40 °C, 75% RH open and closed container or 60 °C, one month
# Pharmacokinetics in mice = assay type: in vivo, male CD1 mice
# Description: Subsequently, samples were spun down at 1640 g for 5-10 min at 4 °C within 30 min after collection and plasma was collected. […] Urine was collected following an intravenous dose in both rat and dog, allowing renal clearance to be estimated. Human renal clearance was estimated from dog renal clearance as previously described[40] and other human PK parameters were predicted using allometric scaling and/or in vitro clearance data. PK parameters were calculated by naïve pooled approach using WinNonLin software (Phoenix, version 6.3).
compound,measurement,setting,value
C[C@@H](CNC(=O)[C@H](O)C(C)(C)CO)NC(=O)c1cc(F)c(F)cc1F [MMV693183],stability after storage under stress conditions,[1],chemically stable; also recorded: no form-change
same,Observed hepatic/ predicted hepatic,Pharmacokinetics in mice; Mouse,< 1.9
same,Observed total-renal = observed hepatic,Pharmacokinetics in mice; Mouse,< 13.4 mL/min/kg
same,Predicted hepatic plasma clearance,"Pharmacokinetics in mice; Mouse, from in vitro hepatic clearance, Fu,p and B:P",7 mL/min/kg and 7.0 mL/min/kg
same,Norm. conc i.v.,"Pharmacokinetics in mice; Mouse, Time (hrs) 0",0 ng/mL
same,Norm. conc i.v.,"Pharmacokinetics in mice; Mouse, Time (hrs) 0.083333",1320 ng/mL and 1393.33 ng/mL and 1330 ng/mL
same,Norm. conc i.v.,"Pharmacokinetics in mice; Mouse, Time (hrs) 0.25",846.667 ng/mL and 920 ng/mL and 863.333 ng/mL
same,Norm. conc i.v.,"Pharmacokinetics in mice; Mouse, Time (hrs) 0.5",636.667 ng/mL and 626.667 ng/mL and 630 ng/mL
same,Norm. conc i.v.,"Pharmacokinetics in mice; Mouse, Time (hrs) 1",324.667 ng/mL and 366.667 ng/mL and 300 ng/mL
same,Norm. conc i.v.,"Pharmacokinetics in mice; Mouse, Time (hrs) 2",132.333 ng/mL and 151 ng/mL and 104 ng/mL
same,Norm. conc i.v.,"Pharmacokinetics in mice; Mouse, Time (hrs) 4",39.3333 ng/mL and 48.3333 ng/mL and 26.9333 ng/mL
same,Norm. conc p.o.,"Pharmacokinetics in mice; Mouse, Time (hrs) 0",0 ng/mL
same,Norm. conc p.o.,"Pharmacokinetics in mice; Mouse, Time (hrs) 0.25",870 ng/mL and 850 ng/mL and 790 ng/mL
same,Norm. conc p.o.,"Pharmacokinetics in mice; Mouse, Time (hrs) 0.5",610 ng/mL and 600 ng/mL and 553.333 ng/mL
same,Norm. conc p.o.,"Pharmacokinetics in mice; Mouse, Time (hrs) 1",333.333 ng/mL and 313.333 ng/mL and 271.333 ng/mL
same,Norm. conc p.o.,"Pharmacokinetics in mice; Mouse, Time (hrs) 2",115 ng/mL and 103.667 ng/mL and 65 ng/mL
same,Norm. conc p.o.,"Pharmacokinetics in mice; Mouse, Time (hrs) 24",0.01333 ng/mL and 0.02 ng/mL
same,AUC0-∞,"Pharmacokinetics in mice; i.v. 3 mg/kg, mean",3764.7 ng·h/mL
same,AUClast,"Pharmacokinetics in mice; i.v. 3 mg/kg, mean",3763.8 ng·h/mL
same,C0,"Pharmacokinetics in mice; i.v. 3 mg/kg, mean",5013.7 ng/mL
same,Kel,"Pharmacokinetics in mice; i.v. 3 mg/kg, mean",0.58 h⁻¹
same,Vss_obs,"Pharmacokinetics in mice; i.v. 3 mg/kg, mean",1.0265 L/kg
same,CLtotal,"Pharmacokinetics in mice; i.v. 3 mg/kg, mean, 3 mg/kg",13.4 mL/min/kg and 13.36 mL/min/kg
same,T1/2,"Pharmacokinetics in mice; i.v. 3 mg/kg, mean, 3 mg/kg",1.2 h and 1.19 h
same,share of total clearance contributed by the kidney,Pharmacokinetics in mice; mice,48%
same,clearance contributed by the kidney,"Pharmacokinetics in mice; mice, total minus predicted hepatic",6.4 mL/min/kg
same,%F,"Pharmacokinetics in mice; p.o. 30 mg/kg, mean",70.03%
same,AUC0-∞,"Pharmacokinetics in mice; p.o. 30 mg/kg, mean",26362.9 ng·h/mL
same,AUClast,"Pharmacokinetics in mice; p.o. 30 mg/kg, mean",26362.2 ng·h/mL
same,CLtotal,"Pharmacokinetics in mice; p.o. 30 mg/kg, mean",19.21 mL/min/kg
same,Cmax,"Pharmacokinetics in mice; p.o. 30 mg/kg, mean",25100.0 ng/mL
same,Kel,"Pharmacokinetics in mice; p.o. 30 mg/kg, mean",0.67 h⁻¹
same,T1/2,"Pharmacokinetics in mice; p.o. 30 mg/kg, mean",1.05 h
same,Tmax,"Pharmacokinetics in mice; p.o. 30 mg/kg, mean",0.25 h
